Molecules are shown by their SMILES.

One assay has as its system HBV rcDNA in HepDE19 cells. Briefly: HepDE19 assay with bDNA quantitation of HBV rcDNA. Type of assay: cell-based, hepatitis B virus. Conditions: HepDE19 assay, inhibition of rcDNA formation, bDNA quantitation; read-out: DE-19bDNA EC50.
One may read the EC50 as the midpoint of the concentration-response curve. In the case of `CN(C(=O)c1cc2sccc2[nH]1)C1COCc2[nH]c(=O)c3cc(F)ccc3c21` (single isomer, unassigned) [Compound 381, N-(8-Fluoro-6-oxo-1,4,5,6-tetrahydro-2H-pyrano[3,4-c]isoquinolin-1-yl)-N-methyl-4H-thieno[3,2-b]pyrrole-5-carboxamide], the EC50 came to 40 nM.
The same measure, in the same setting: the same measure for `CN(C(=O)c1cc2c(C#N)cc(F)cc2[nH]1)C1COCc2[nH]c(=O)c3cc(F)ccc3c21` (single isomer, unassigned) [Compound 382, 4-Cyano-6-fluoro-N-(8-fluoro-6-oxo-1,4,5,6-tetrahydro-2H-pyrano[3,4-c]isoquinolin-1-yl)-N-methyl-1H-indole-2-carboxamide]: 980 nM.
Still for that read-out and setting: then `CN(C(=O)c1cc2c(C#N)cc(F)cc2[nH]1)C1COCc2[nH]c(=O)c3cc(F)ccc3c21` (single isomer, unassigned) [Compound 383, 4-Cyano-6-fluoro-N-(8-fluoro-6-oxo-1,4,5,6-tetrahydro-2H-pyrano[3,4-c]isoquinolin-1-yl)-N-methyl-1H-indole-2-carboxamide], with 40 nM; and `CN(C(=O)c1cc2ccc(C(F)F)cn2c1)C1CNCc2[nH]c(=O)c3cc(F)c(F)cc3c21` (single isomer, unassigned) [Compound 387, N-(8,9-Difluoro-6-oxo-1,2,3,4,5,6-hexahydrobenzo[c][1,7]naphthyridin-1-yl)-6-(difluoromethyl)-N-methylindolizine-2-carboxamide], with 11000 nM; and `CN(C(=O)c1cc2ccc(C(F)F)cn2c1)C1CNCc2[nH]c(=O)c3cc(F)c(F)cc3c21` (single isomer, unassigned) [Compound 388, N-(8,9-Difluoro-6-oxo-1,2,3,4,5,6-hexahydrobenzo[c][1,7]naphthyridin-1-yl)-6-(difluoromethyl)-N-methylindolizine-2-carboxamide], with 110 nM.
Turning to `CN(C(=O)c1ccc2cccn2c1)C1COCc2[nH]c(=O)c3cc(F)ccc3c21` (single isomer, unassigned) [Compound 389, N-(8-Fluoro-6-oxo-1,4,5,6-tetrahydro-2H-pyrano[3,4-c]isoquinolin-1-yl)-N-methylindolizine-6-carboxamide], the EC50 is 17000 nM.
For `CN(C(=O)c1ccc2cccn2c1)C1COCc2[nH]c(=O)c3cc(F)ccc3c21` (single isomer, unassigned) [Compound 390, N-(8-Fluoro-6-oxo-1,4,5,6-tetrahydro-2H-pyrano[3,4-c]isoquinolin-1-yl)-N-methylindolizine-6-carboxamide], the EC50 amounted to 70 nM.
For `CN(C(=O)c1ccc2cccn2c1)C1CNCc2[nH]c(=O)c3cc(F)c(F)cc3c21` (single isomer, unassigned) [Compound 391, N-(8,9-difluoro-6-oxo-1,2,3,4,5,6-hexahydrobenzo[c][1,7]naphthyridin-1-yl)-N-methylindolizine-6-carboxamide], the EC50 amounted to 22000 nM.
For the compound `CN(C(=O)c1ccc2cccn2c1)C1CNCc2[nH]c(=O)c3cc(F)c(F)cc3c21` (single isomer, unassigned) [Compound 392, N-(8,9-difluoro-6-oxo-1,2,3,4,5,6-hexahydrobenzo[c][1,7]naphthyridin-1-yl)-N-methylindolizine-6-carboxamide], the EC50 came out at 90 nM.
For `CCc1cc(F)cc2[nH]c(C(=O)N(C)C3COCc4[nH]c(=O)c5cc(F)ccc5c43)cc12` (single isomer, unassigned) [Compound 393, 4-Ethyl-6-fluoro-N-(8-fluoro-6-oxo-1,4,5,6-tetrahydro-2H-pyrano[3,4-c]isoquinolin-1-yl)-N-methyl-1H-indole-2-carboxamide], the EC50 was determined as 1200 nM.
On the same count and under the same terms, the same measure for `CCc1cc(F)cc2[nH]c(C(=O)N(C)C3COCc4[nH]c(=O)c5cc(F)ccc5c43)cc12` (single isomer, unassigned) [Compound 394, 4-Ethyl-6-fluoro-N-(8-fluoro-6-oxo-1,4,5,6-tetrahydro-2H-pyrano[3,4-c]isoquinolin-1-yl)-N-methyl-1H-indole-2-carboxamide]: 460 nM; for `CN(C(=O)c1cc2cc(C#N)ccc2[nH]1)C1COCc2[nH]c(=O)c3cc(F)ccc3c21` (single isomer, unassigned) [Compound 397, 5-Cyano-N-(8-fluoro-6-oxo-1,4,5,6-tetrahydro-2H-pyrano[3,4-c]isoquinolin-1-yl)-N-methyl-1H-indole-2-carboxamide]: 17000 nM.
Take `CN(C(=O)c1cc2cc(C#N)ccc2[nH]1)C1COCc2[nH]c(=O)c3cc(F)ccc3c21` (single isomer, unassigned) [Compound 398, 5-Cyano-N-(8-fluoro-6-oxo-1,4,5,6-tetrahydro-2H-pyrano[3,4-c]isoquinolin-1-yl)-N-methyl-1H-indole-2-carboxamide]: the EC50 was found to be 270 nM.
For `CN(C(=O)c1cc2c(C#N)cc(F)cc2[nH]1)C1CNCc2[nH]c(=O)c3cc(F)c(F)cc3c21` (single isomer, unassigned) [Compound 399, 4-Cyano-N-(8,9-difluoro-6-oxo-1,2,3,4,5,6-hexahydrobenzo[c][1,7]naphthyridin-1-yl)-6-fluoro-N-methyl-1H-indole-2-carboxamide], the EC50 was 3800 nM.
Take `CN(C(=O)c1cc2c(C#N)cc(F)cc2[nH]1)C1CNCc2[nH]c(=O)c3cc(F)c(F)cc3c21` (single isomer, unassigned) [Compound 400, 4-Cyano-N-(8,9-difluoro-6-oxo-1,2,3,4,5,6-hexahydrobenzo[c][1,7]naphthyridin-1-yl)-6-fluoro-N-methyl-1H-indole-2-carboxamide]: the EC50 was determined as 90 nM.
The same measure, in the same setting: then `CCc1cc(F)cc2[nH]c(C(=O)N(C)C3CNCc4[nH]c(=O)c5cc(F)c(F)cc5c43)cc12` (single isomer, unassigned) [Compound 401, N-(8,9-Difluoro-6-oxo-1,2,3,4,5,6-hexahydrobenzo[c][1,7]naphthyridin-1-yl)-4-ethyl-6-fluoro-N-methyl-1H-indole-2-carboxamide], with 2500 nM.
Turning to `CCc1cc(F)cc2[nH]c(C(=O)N(C)C3CNCc4[nH]c(=O)c5cc(F)c(F)cc5c43)cc12` (single isomer, unassigned) [Compound 402, N-(8,9-Difluoro-6-oxo-1,2,3,4,5,6-hexahydrobenzo[c][1,7]naphthyridin-1-yl)-4-ethyl-6-fluoro-N-methyl-1H-indole-2-carboxamide], the EC50 was determined as 20 nM.
For the compound `CN(C(=O)c1cnc(C(F)(F)F)c(F)c1)C1COCc2[nH]c(=O)c3cc(F)ccc3c21` (single isomer, unassigned) [Compound 414, 5-Fluoro-N-(8-fluoro-6-oxo-1,4,5,6-tetrahydro-2H-pyrano[3,4-c]isoquinolin-1-yl)-N-methyl-6-(trifluoromethyl)nicotinamide], the EC50 stood at 170 nM.
Still for that read-out and setting: then `CN(C(=O)c1cc2sccc2[nH]1)C1CNCc2[nH]c(=O)c3cc(F)c(F)cc3c21` (single isomer, unassigned) [Compound 420, N-(8,9-Difluoro-6-oxo-1,2,3,4,5,6-hexahydrobenzo[c][1,7]naphthyridin-1-yl)-N-methyl-4H-thieno[3,2-b]pyrrole-5-carboxamide], with 660 nM; and `CN(C(=O)c1cc2sccc2[nH]1)C1CNCc2[nH]c(=O)c3cc(F)c(F)cc3c21` (single isomer, unassigned) [Compound 421, N-(8,9-Difluoro-6-oxo-1,2,3,4,5,6-hexahydrobenzo[c][1,7]naphthyridin-1-yl)-N-methyl-4H-thieno[3,2-b]pyrrole-5-carboxamide], with 40 nM.
For the compound `Cc1cccc2[nH]c(C(=O)N(C)C3COCc4[nH]c(=O)c5cc(F)ccc5c43)cc12` (single isomer, unassigned) [Compound 422, N-(8-Fluoro-6-oxo-1,4,5,6-tetrahydro-2H-pyrano[3,4-c]isoquinolin-1-yl)-N,4-dimethyl-1H-indole-2-carboxamide], the EC50 is 1200 nM.
Same read-out and setting: the same measure for `Cc1cccc2[nH]c(C(=O)N(C)C3COCc4[nH]c(=O)c5cc(F)ccc5c43)cc12` (single isomer, unassigned) [Compound 423, N-(8-Fluoro-6-oxo-1,4,5,6-tetrahydro-2H-pyrano[3,4-c]isoquinolin-1-yl)-N,4-dimethyl-1H-indole-2-carboxamide]: 10 nM; for `CN(C(=O)c1cc2c(Cl)cccc2[nH]1)C1COCc2[nH]c(=O)c3cc(F)ccc3c21` (single isomer, unassigned) [Compound 424, 4-Chloro-N-(8-fluoro-6-oxo-1,4,5,6-tetrahydro-2H-pyrano[3,4-c]isoquinolin-1-yl)-N-methyl-1H-indole-2-carboxamide]: 510 nM.

The same assay, now with this note: Hepatitis B virus, HepDE19, HepDE19 assay, inhibition of rcDNA formation, bDNA quantitation; read-out: DE-19bDNA EC50.
With `CN(C(=O)c1cc2cc(C(F)F)ccn2c1)C1CNCc2[nH]c(=O)c3cc(F)c(F)cc3c21` (single isomer, unassigned) [Compound 386, N-(8,9-Difluoro-6-oxo-1,2,3,4,5,6-hexahydrobenzo[c][1,7]naphthyridin-1-yl)-7-(difluoromethyl)-N-methylindolizine-2-carboxamide], the EC50 turned out to be 1900 nM.
Same read-out and setting: the same measure for `CN(C(=O)c1cc2cc(S(C)(=O)=O)ccc2[nH]1)C1CNCc2[nH]c(=O)c3cc(F)c(F)cc3c21` (single isomer, unassigned) [Compound 403, N-(8,9-Difluoro-6-oxo-1,2,3,4,5,6-hexahydrobenzo[c][1,7]naphthyridin-1-yl)-N-methyl-5-(methylsulfonyl)-1H-indole-2-carboxamide]: 25000 nM; for `CN(C(=O)c1cc2cc(C#N)ccc2[nH]1)C1CNCc2[nH]c(=O)c3cc(F)c(F)cc3c21` (single isomer, unassigned) [Compound 406, 5-Cyano-N-(8,9-difluoro-6-oxo-1,2,3,4,5,6-hexahydrobenzo[c][1,7]naphthyridin-1-yl)-N-methyl-1H-indole-2-carboxamide]: 190 nM; for `CN(C(=O)c1cnc(C(F)(F)F)c(Cl)c1)C1CNCc2[nH]c(=O)c3cc(F)c(F)cc3c21` (single isomer, unassigned) [Compound 419, 5-Chloro-N-(8,9-difluoro-6-oxo-1,2,3,4,5,6-hexahydrobenzo[c][1,7]naphthyridin-1-yl)-N-methyl-6-(trifluoromethyl)nicotinamide]: 140 nM.

Source of the values: patent US20240228504A1, “SUBSTITUTED TRICYCLIC AMIDES, ANALOGUES THEREOF, AND METHODS USING SAME” (Arbutus Biopharma Corporation, priority 2020, published 2024).
